Experiments:
SIK1 = target: T1, SIK1 (Homo sapiens, UniProt P57059); experiment: ADP-Glo kinase assay, SIK1; assay type: biochemical; conditions: ADP-Glo SIK kinase assay
T1 construct: purchased Carna Biosciences 02-131
Method in brief: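 Enzyme–substrate mix was started with ATP and incubated 120 min at RT. ADP formed was quantified by ADP-Glo: 40 min ATP depletion, then 30 min detection reagent converting ADP to ATP for luciferase luminescence, which rises with kinase activity. Controls: 1% DMSO and 10 μM staurosporine (final).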

SIK2 = target: T2, SIK2 (Homo sapiens, UniProt Q9H0K1); experiment: ADP-Glo kinase assay, SIK2; assay type: biochemical; conditions: ADP-Glo SIK kinase assay
T2 construct: purchased ThermoFisher Scientific PV4792
T2 sequence (Q9H0K1 whole entry): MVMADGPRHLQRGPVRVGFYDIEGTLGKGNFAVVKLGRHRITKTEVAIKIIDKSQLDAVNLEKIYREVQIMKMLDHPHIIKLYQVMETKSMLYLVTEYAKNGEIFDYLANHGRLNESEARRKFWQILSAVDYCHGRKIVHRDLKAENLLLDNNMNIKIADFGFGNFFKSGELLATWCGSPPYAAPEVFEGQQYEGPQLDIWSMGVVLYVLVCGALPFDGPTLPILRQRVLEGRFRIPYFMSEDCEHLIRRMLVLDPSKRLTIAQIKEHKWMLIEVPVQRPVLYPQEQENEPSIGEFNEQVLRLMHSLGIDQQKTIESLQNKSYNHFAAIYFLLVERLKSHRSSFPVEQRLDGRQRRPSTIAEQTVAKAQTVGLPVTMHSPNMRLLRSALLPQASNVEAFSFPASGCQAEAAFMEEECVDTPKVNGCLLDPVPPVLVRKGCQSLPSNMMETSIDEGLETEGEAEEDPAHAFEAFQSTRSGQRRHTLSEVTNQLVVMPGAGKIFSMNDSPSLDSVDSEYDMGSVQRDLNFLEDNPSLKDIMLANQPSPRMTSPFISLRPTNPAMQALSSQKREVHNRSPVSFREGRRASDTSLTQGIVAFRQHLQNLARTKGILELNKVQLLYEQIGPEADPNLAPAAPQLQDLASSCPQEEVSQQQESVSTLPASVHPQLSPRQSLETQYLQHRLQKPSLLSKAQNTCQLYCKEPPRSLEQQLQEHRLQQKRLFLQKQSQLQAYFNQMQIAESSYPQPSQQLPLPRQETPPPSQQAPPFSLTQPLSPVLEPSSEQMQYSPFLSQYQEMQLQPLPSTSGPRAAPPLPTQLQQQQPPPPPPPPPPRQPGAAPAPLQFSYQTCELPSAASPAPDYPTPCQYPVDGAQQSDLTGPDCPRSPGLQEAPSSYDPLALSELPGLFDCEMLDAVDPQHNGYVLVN
Method in brief: (§1)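 Kinase reactions (enzyme-substrate mix plus ATP) ran 120 min at room temperature for each of SIK3 and SIK2. Signal came from ADP-Glo: unconsumed ATP removed (40 min), ADP reconverted and detected by luciferase/luciferin (30 min), with luminescence tracking kinase activity. 10 μM staurosporine and 1% DMSO (final) served as controls.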

SIK3 = target: T3, SIK3 (Homo sapiens, UniProt Q9Y2K2); experiment: ADP-Glo kinase assay, SIK3; assay type: biochemical; conditions: ADP-Glo SIK kinase assay
T3 construct: purchased SignalChem S12-11G-100
T3 sequence (Q9Y2K2 whole entry): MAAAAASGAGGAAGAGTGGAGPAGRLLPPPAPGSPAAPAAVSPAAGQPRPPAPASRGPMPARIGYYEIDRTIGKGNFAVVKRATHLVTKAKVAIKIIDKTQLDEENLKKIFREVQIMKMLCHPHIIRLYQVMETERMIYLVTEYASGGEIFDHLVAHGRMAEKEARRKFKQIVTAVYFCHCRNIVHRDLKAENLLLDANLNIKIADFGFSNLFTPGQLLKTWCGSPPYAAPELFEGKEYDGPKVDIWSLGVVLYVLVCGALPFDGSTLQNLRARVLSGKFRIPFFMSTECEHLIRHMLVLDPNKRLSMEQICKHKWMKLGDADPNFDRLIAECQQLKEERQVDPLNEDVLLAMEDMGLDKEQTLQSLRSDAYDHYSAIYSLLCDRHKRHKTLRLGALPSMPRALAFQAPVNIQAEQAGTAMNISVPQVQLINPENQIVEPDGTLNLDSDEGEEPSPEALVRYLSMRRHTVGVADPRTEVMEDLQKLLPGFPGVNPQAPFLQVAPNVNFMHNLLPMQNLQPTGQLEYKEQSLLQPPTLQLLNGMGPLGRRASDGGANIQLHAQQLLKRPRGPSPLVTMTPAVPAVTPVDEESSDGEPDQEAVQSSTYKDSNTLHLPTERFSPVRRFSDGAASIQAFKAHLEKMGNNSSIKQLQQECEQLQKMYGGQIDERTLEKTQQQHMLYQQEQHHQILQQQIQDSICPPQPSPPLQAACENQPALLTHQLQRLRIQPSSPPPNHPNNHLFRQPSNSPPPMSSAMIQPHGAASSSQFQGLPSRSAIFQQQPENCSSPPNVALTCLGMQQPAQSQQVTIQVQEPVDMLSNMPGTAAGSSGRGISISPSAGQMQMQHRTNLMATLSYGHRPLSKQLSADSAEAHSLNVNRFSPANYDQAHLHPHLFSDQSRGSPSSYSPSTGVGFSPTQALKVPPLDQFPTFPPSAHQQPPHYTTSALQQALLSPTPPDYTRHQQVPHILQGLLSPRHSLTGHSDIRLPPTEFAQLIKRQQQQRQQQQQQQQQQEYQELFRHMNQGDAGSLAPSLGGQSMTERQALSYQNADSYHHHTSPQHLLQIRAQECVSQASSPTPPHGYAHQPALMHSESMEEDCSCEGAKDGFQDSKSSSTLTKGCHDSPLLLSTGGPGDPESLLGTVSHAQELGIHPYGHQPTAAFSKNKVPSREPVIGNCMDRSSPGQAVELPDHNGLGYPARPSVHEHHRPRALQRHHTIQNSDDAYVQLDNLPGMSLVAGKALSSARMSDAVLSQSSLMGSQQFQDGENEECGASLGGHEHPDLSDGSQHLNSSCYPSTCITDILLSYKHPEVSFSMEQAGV
Method in brief: as §1

[1] = system: LPS-induced TNFα in monocytes; experiment: Monocytes assay: LPS-triggered TNFα (ELISA); assay type: cell-based, human; conditions: Homo sapiens, Monocyte, LPS 200 ng/mL, supernatant after 4 h
Method in brief: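 Supernatant TNFα was quantified by luminol-based sandwich ELISA after 4 h stimulation with LPS (200 ng/mL final). The cells were CD14-bead-purified monocytes from human PBMCs, 100 000 per well, exposed to 3-fold compound dilutions for 1 h at 37° C beforehand, with DMSO at 0.2%. Results are reported as percent inhibition.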

[2] = system: LPS triggered IL-10 secretion in monocytes; experiment: Monocytes assay: LPS-triggered IL-10 (ELISA); assay type: cell-based, human; conditions: LPS 200 ng/mL, supernatant after 4 h, maximal fold change vs LPS only
Method in brief: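 Human CD14+ monocytes, magnetically isolated from buffy-coat PBMCs, were seeded at 100 000 cells/well and preincubated with compound for 1 h at 37° C (0.2% DMSO). LPS was then added at a final 200 ng/mL for 4 h. Supernatant IL-10 was quantified by chemiluminescent sandwich ELISA against a standard curve.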

T1 sequence (P57059 whole entry): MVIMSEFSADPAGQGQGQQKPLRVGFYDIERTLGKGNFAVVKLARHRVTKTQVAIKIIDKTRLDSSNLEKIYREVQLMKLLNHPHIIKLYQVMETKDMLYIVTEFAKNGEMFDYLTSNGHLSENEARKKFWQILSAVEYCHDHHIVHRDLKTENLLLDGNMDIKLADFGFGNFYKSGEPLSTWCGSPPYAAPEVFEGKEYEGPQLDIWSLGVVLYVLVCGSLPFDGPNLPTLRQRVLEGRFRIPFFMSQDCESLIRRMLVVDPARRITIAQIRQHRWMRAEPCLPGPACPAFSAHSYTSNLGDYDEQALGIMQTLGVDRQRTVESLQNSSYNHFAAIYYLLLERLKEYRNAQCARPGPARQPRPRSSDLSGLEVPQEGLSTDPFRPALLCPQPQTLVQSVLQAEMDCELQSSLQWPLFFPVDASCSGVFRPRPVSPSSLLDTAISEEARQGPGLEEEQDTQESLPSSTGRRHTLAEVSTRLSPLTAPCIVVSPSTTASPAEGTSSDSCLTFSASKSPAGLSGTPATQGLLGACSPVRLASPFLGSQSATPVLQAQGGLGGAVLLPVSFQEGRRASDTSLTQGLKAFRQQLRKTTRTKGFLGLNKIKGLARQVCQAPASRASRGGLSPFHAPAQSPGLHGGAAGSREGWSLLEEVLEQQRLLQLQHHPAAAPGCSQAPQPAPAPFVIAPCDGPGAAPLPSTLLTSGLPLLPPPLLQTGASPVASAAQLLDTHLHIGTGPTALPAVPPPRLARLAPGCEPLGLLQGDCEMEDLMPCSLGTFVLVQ

Row | SMILES | IC50 (SIK1) [nM] | IC50 (SIK2) [nM] | IC50 (SIK3) [nM] | EC50 ([1]; 4 h) [nM] | IL-10 FCmax median [2] | EC50 [1] [nM]
1 | COc1cc(-c2cnc3cc(OCC4CCN(C5COC5)C4)ccn23)cc(OC(F)F)c1C(=O)NC1CC1 (centres unmarked) [Cpd 288, N-cyclopropyl-2-(difluoromethoxy)-6-methoxy-4-[7-[[1-(oxetan-3-yl)pyrrolidin-3-yl]methoxy]imidazo[1,2-a]pyridin-3-yl]benzamide] | 10 to 100 | 0.01 to 10 | 0.01 to 10 | 0.1 to 100 | +++ (>4.5) | 
2 | COc1cc(-c2cnc3cc(OCCCN4CCC(O)C4)ccn23)cc(OC(F)F)c1C(=O)NC1CC1 (centres unmarked) [compound 319, N-cyclopropyl-2-(difluoromethoxy)-4-[7-[3-(3-hydroxypyrrolidin-1-yl)propoxy]imidazo[1,2-a]pyridin-3-yl]-6-methoxy-benzamide] | 10 to 100 | 0.01 to 10 | 0.01 to 10 | 100 to 1000 | ++ (>1.5-4.5) | 
3 | COc1cc(-c2cnc3cc(OCC4CN(CC#N)C4)ccn23)cc(OC(F)F)c1C(=O)NC1CC1 [Cpd 322, 4-[7-[[1-(cyanomethyl)azetidin-3-yl]methoxy]imidazo[1,2-a]pyridin-3-yl]-N-cyclopropyl-2-(difluoromethoxy)-6-methoxy-benzamide] | 10 to 100 | 0.01 to 10 | 0.01 to 10 |  | ++ (>1.5-4.5) | 0.1 to 100
4 | COc1cc(-c2cnc3cc(OCCC4CCCN4C(C)C)ccn23)cc(OC(F)F)c1C(=O)NC1CC1 (centres unmarked) [compound 301, N-cyclopropyl-2-(difluoromethoxy)-4-[7-[2-(1-isopropylpyrrolidin-2-yl)ethoxy]imidazo[1,2-a]pyridin-3-yl]-6-methoxy-benzamide] | 10 to 100 | 0.01 to 10 | 0.01 to 10 | 0.1 to 100 | +++ (>4.5) | 
5 | COc1cc(-c2cnc3cc(OCCCN4CCCCC4)ccn23)cc(OC(F)F)c1C(=O)N1CC(O)(C(F)(F)F)C1 [compound 354, [2-(difluoromethoxy)-6-methoxy-4-[7-[3-(1-piperidyl)propoxy]imidazo[1,2-a]pyridin-3-yl]phenyl]-[3-hydroxy-3-(trifluoromethyl)azetidin-1-yl]methanone] | 10 to 100 | 0.01 to 10 | 0.01 to 10 | 100 to 1000 | +++ (>4.5) | 
6 | COc1cc(-c2cnc3cc(OC[C@@H]4CCN(C(C)C)C4)ccn23)cc(OC(F)F)c1C(=O)NC1CC1 [compound 337, N-cyclopropyl-2-(difluoromethoxy)-4-[7-[[(3R)-1-isopropylpyrrolidin-3-yl]methoxy]imidazo[1,2-a]pyridin-3-yl]-6-methoxy-benzamide] | 10 to 100 | 0.01 to 10 | 0.01 to 10 | 0.1 to 100 | +++ (>4.5) | 
7 | COc1cc(-c2cnc3cc(OCC4CCCN(C(C)C)C4)ccn23)cc(OC(F)F)c1C(=O)NC1CC1 (centres unmarked) [compound 280, N-cyclopropyl-2-(difluoromethoxy)-4-[7-[(1-isopropyl-3-piperidyl)methoxy]imidazo [1,2-a]pyridin-3-yl]-6-methoxy-benzamide] | 0.01 to 10 | 0.01 to 10 | 0.01 to 10 | 0.1 to 100 | ++ (>1.5-4.5) | 
8 | COc1cc(-c2cnc3cc(OCCCN4CCCCC4)ccn23)cc(OC(F)F)c1C(=O)N1CC(O)(C(F)F)C1 [compound 358, [2-(difluoromethoxy)-6-methoxy-4-[7-[3-(1-piperidyl)propoxy]imidazo[1,2-a]pyridin-3-yl]phenyl]-[3-(difluoromethyl)-3-hydroxy-azetidin-1-yl]methanone] | 10 to 100 | 0.01 to 10 | 0.01 to 10 | 100 to 1000 | +++ (>4.5) | 
9 | COc1cc(-c2cnc3cc(OCCCN4CC5(CCC5)C4)ccn23)cc(OC(F)F)c1C(=O)NC1CC1 [compound 293, 4-[7-[3-(2-azaspiro[3.3]heptan-2-yl)propoxy]imidazo[1,2-a]pyridin-3-yl]-N-cyclopropyl-2-(difluoromethoxy)-6-methoxy-benzamide] | 10 to 100 | 0.01 to 10 | 0.01 to 10 | 0.1 to 100 | +++ (>4.5) | 
10 | COc1cc(-c2cnc3cc(OCCOCCN4CCN(C(C)C)CC4)ccn23)cc(OC(F)F)c1C(=O)NC1CC1 [compound 298, N-cyclopropyl-2-(difluoromethoxy)-4-[7-[2-[2-(4-isopropylpiperazin-1-yl)ethoxy]ethoxy]imidazo [1,2-a]pyridin-3-yl]-6-methoxy-benzamide] | 10 to 100 | 0.01 to 10 | 0.01 to 10 | 100 to 1000 | +++ (>4.5) | 
11 | COc1cc(-c2cnc3cc(OCCC4CCCN4C4COC4)ccn23)cc(OC(F)F)c1C(=O)NC1CC1 (centres unmarked) [compound 299, N-cyclopropyl-2-(difluoromethoxy)-6-methoxy-4-[7-[2-[1-(oxetan-3-yl)pyrrolidin-2-yl]ethoxy]imidazo[1,2-a]pyridin-3-yl]benzamide] | 10 to 100 | 0.01 to 10 | 0.01 to 10 | 0.1 to 100 | +++ (>4.5) | 
12 | COc1cc(-c2cnc3cc(OCCCN4CCC45CCC5)ccn23)cc(OC(F)F)c1C(=O)NC1CC1 [compound 302, 4-[7-[3-(1-azaspiro[3.3]heptan-1-yl)propoxy]imidazo[1,2-a]pyridin-3-yl]-N-cyclopropyl-2-(difluoromethoxy)-6-methoxy-benzamide] | 10 to 100 | 0.01 to 10 | 0.01 to 10 | 0.1 to 100 | +++ (>4.5) | 
13 | CCOC(=O)C1(O)CCN(CC(O)COc2ccn3c(-c4cc(OC)c(C(=O)NC5CC5)c(OC(F)F)c4)cnc3c2)CC1 (centres unmarked) [compound 383, ethyl 1-[3-[3-[4-(cyclopropylcarbamoyl)-3-(difluoromethoxy)-5-methoxy-phenyl]imidazo[1,2-a]pyridin-7-yl]oxy-2-hydroxy-propyl]-4-hydroxy-piperidine-4-carboxylate] | 10 to 100 | 0.01 to 10 | 0.01 to 10 | 100 to 1000 | ++ (>1.5-4.5) | 
14 | COC(=O)[C@@H]1CN(CC(O)COc2ccn3c(-c4cc(OC)c(C(=O)NC5CC5)c(OC(F)F)c4)cnc3c2)CCO1 (stereo partly drawn) [compound 388, methyl (2S)-4-[3-[3-[4-(cyclopropylcarbamoyl)-3-(difluoromethoxy)-5-methoxy-phenyl]imidazo[1,2-a]pyridin-7-yl]oxy-2-hydroxy-propyl]morpholine-2-carboxylate] | 10 to 100 | 0.01 to 10 | 0.01 to 10 | 100 to 1000 | +++ (>4.5) | 
15 | CCOC(=O)C1(C)CN(CCCOc2ccn3c(-c4cc(OC)c(C(=O)NC5CC5)c(OC(F)F)c4)cnc3c2)C1 [compound 385, ethyl 1-[3-[3-[4-(cyclopropylcarbamoyl)-3-(difluoromethoxy)-5-methoxy-phenyl]imidazo[1,2-a]pyridin-7-yl]oxypropyl]-3-methyl-azetidine-3-carboxylate] | 10 to 100 | 0.01 to 10 | 0.01 to 10 | 0.1 to 100 | +++ (>4.5) | 
16 | COc1cc(-c2cnc3cc(OC[C@@H]4CCNC4)ccn23)cc(OC(F)F)c1C(=O)NC1CC1 [Cpd 334, N-cyclopropyl-2-(difluoromethoxy)-6-methoxy-4-[7-[[(3R)-pyrrolidin-3-yl]methoxy]imidazo[1,2-a]pyridin-3-yl]benzamide] | 10 to 100 | 0.01 to 10 | 0.01 to 10 | 100 to 1000 | ++ (>1.5-4.5) | 
